Measured values from patent US20230131899A1, “INHIBITORS OF MICROBIALLY INDUCED AMYLOID” (Axial Therapeutics, Inc., priority 2020, published 2023).
Like-named read-outs stand apart in the source and are kept apart here.

Biological target: T1, E. coli CsgA (Escherichia coli, UniProt P28307)
T1 construct: made in house; host or cells: E. coli NEB 3016 slyD::kan, pET11d
Assay: In vitro ThioflavinT assay of CsgA aggregation (CsgA ThT Assay)
Assay type: biochemical
Procedure, shortened: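 Purified C-terminal His-tagged CsgA, monomerised by desalting and 30-kDa filtration, at 2-20 μM with 20-40 μM ThT in 50 mM potassium phosphate pH 7.3, 1% DMSO, compounds 3.125-200 uM; room temperature, fluorescence (ex 438/em 495 nm) read every 15 min. Background-subtracted signal expressed as percent inhibition versus vehicle at 6-6.5 or 8-9 h, or as percent control AUC.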

[1] = read-out: CsgA ThT Assay (2 μM CsgA) % Control Bmax 25 μM, activity range, class symbol, CsgA 2 μM, white plates, compound 25 μM
[2] = read-out: CsgA ThT Assay (2 μM CsgA) % Control Bmax 25 μM, mean Bmax as percentage of DMSO control, CsgA 2 μM, white plates, compound 25 μM
[3] = read-out: CsgA ThT Assay (2 μM CsgA) % Control Bmax 100 μM, activity range, class symbol, CsgA 2 μM, white plates, compound 100 μM
[4] = read-out: CsgA ThT Assay (2 μM CsgA) % Control Bmax 100 μM, mean Bmax as percentage of DMSO control, CsgA 2 μM, white plates, compound 100 μM
[5] = read-out: CsgA ThT Assay (10 μM CsgA) % Control AUC at 1005 minutes, 25 μM (activity range), CsgA 10 μM, black plates, compound 25 μM, 1005 minutes, class symbol
[6] = read-out: CsgA ThT Assay (10 μM CsgA) % Control AUC at 1005 minutes, 25 μM, mean AUC as % of DMSO control, CsgA 10 μM, black plates, compound 25 μM, 1005 minutes
[7] = read-out: CsgA ThT Assay (10 μM CsgA) % Control AUC at 1005 minutes, 100 μM (activity range), CsgA 10 μM, black plates, compound 100 μM, 1005 minutes, class symbol
[8] = read-out: CsgA ThT Assay (10 μM CsgA) % Control AUC at 1005 minutes, 100 μM, mean AUC as % of DMSO control, CsgA 10 μM, black plates, compound 100 μM, 1005 minutes

T1 sequence (P28307 23-151): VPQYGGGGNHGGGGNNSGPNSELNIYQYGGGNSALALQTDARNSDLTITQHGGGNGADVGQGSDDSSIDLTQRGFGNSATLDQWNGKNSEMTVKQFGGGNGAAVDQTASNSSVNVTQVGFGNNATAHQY

| Compound | remaining activity at 25 µM [1] | remaining activity at 25 µM [2] | remaining activity at 100 µM [3] | remaining activity at 100 µM [4] | other results |
| --- | --- | --- | --- | --- | --- |
| N#Cc1cccc(CN2CC(C(=O)O)n3c2c(-c2cccc(C(F)(F)F)c2)c(Cc2cccc4ccccc24)c(Cl)c3=O)c1 (centres unmarked) [Compound 168, 6-chloro-1-(3-cyanobenzyl)-7-(naphthalen-1-ylmethyl)-5-oxo-8-(3-(trifluoromethyl)phenyl)-1,2,3,5-tetrahydroimidazo[1,2-a]pyridine-3-carboxylic acid] | > 60% | 76% | 31 to 60% | 47% | – |
| CC1(C(=O)O)CNS(=O)(=O)c2c(-c3cccc(C(F)(F)F)c3)c(Cc3cccc4ccccc34)cc(=O)n21 (centres unmarked) [Compound 042, 4-methyl-8-(naphthalen-1-ylmethyl)-6-oxo-9-(3-(trifluoromethyl)phenyl)-3,4-dihydro-2H,6H-pyrido[1,2-e][1,2,5]thiadiazine-4-carboxylic acid 1,1-dioxide] | – | – | – | – | remaining activity at 25 µM [5]: 31 to 60%; remaining activity at 25 µM [6]: 52%; remaining activity at 100 µM [7]: 11 to 31%; remaining activity at 100 µM [8]: 18% |
| CCCN1CC(C(=O)O)n2c(c(-c3cccc(C(F)(F)F)c3)c(Cc3cccc4ccccc34)c(OCC)c2=O)S1(=O)=O (centres unmarked) [Compound 143, 7-ethoxy-8-(naphthalen-1-ylmethyl)-6-oxo-2-propyl-9-(3-(trifluoromethyl)phenyl)-3,4-dihydro-2H,6H-pyrido[1,2-e][1,2,5]thiadiazine-4-carboxylic acid 1,1-dioxide] | > 60% | 87% | > 60% | 88% | – |
| COc1ccc(CN2CC(C(=O)O)n3c2c(-c2cccc(C(F)(F)F)c2)c(Cc2cccc4ccccc24)c(Cl)c3=O)cc1 (centres unmarked) [Compound 192, 6-chloro-1-(4-methoxybenzyl)-7-(naphthalen-1-ylmethyl)-5-oxo-8-(3-(trifluoromethyl)phenyl)-1,2,3,5-tetrahydroimidazo[1,2-a]pyridine-3-carboxylic acid] | > 60% | 87% | > 60% | 95% | – |
| O=C(O)C1CN(CCCCCCCN2CC(C(=O)O)n3c2c(-c2cccc(C(F)(F)F)c2)c(Cc2cccc4ccccc24)c(Cl)c3=O)c2c(-c3cccc(C(F)(F)F)c3)c(Cc3cccc4ccccc34)c(Cl)c(=O)n21 (centres unmarked) [Compound 188, 1,1′-(heptane-1,7-diyl)bis(6-chloro-7-(naphthalen-1-ylmethyl)-5-oxo-8-(3-(trifluoromethyl)phenyl)-1,2,3,5-tetrahydroimidazo[1,2-a]pyridine-3-carboxylic acid)] | 31 to 60% | 33% | 11 to 31% | 14% | – |
| O=C(O)C1CN(CCc2ccccc2)c2c(-c3cccc(C(F)(F)F)c3)c(Cc3cccc4ccccc34)c(Cl)c(=O)n21 (centres unmarked) [Compound 178, 6-chloro-7-(naphthalen-1-ylmethyl)-5-oxo-1-phenethyl-8-(3-(trifluoromethyl)phenyl)-1,2,3,5-tetrahydroimidazo[1,2-a]pyridine-3-carboxylic acid] | 31 to 60% | 57% | < 10% | 9% | – |
| Nc1c(Cc2cccc3ccccc23)c(-c2cccc(C(F)(F)F)c2)c2n(c1=O)C(C(=O)O)CS2 (single isomer, unassigned) [Compound 020b, 6-amino-7-(naphthalen-1-ylmethyl)-5-oxo-8-(3-(trifluoromethyl)phenyl)-2,3-dihydro-5H-thiazolo[3,2-a]pyridine-3-carboxylic acid] | – | – | – | – | CsgA ThT Assay (10 μM CsgA) % Control AUC at 1005 minutes, 25 μM (activity range) (CsgA 10 μM, black plates, compound 25 μM, 1005 minutes, class symbol): (+++) (% control AUC of 11 to 31%); CsgA ThT Assay (10 μM CsgA) % Control AUC at 1005 minutes, 100 μM (activity range) (CsgA 10 μM, black plates, compound 100 μM, 1005 minutes, class symbol): (+++) (% control AUC of 11 to 31%); CsgA ThT Assay (10 μM CsgA) % Control AUC at 1005 minutes, 25 μM (mean AUC as % of DMSO control, CsgA 10 μM, black plates, compound 25 μM, 1005 minutes): 26%; CsgA ThT Assay (10 μM CsgA) % Control AUC at 1005 minutes, 100 μM (mean AUC as % of DMSO control, CsgA 10 μM, black plates, compound 100 μM, 1005 minutes): 16% |
| O=C(O)C1CN(Cc2ccccc2)c2c(-c3cccc(C(F)(F)F)c3)c(Cc3cccc4ccccc34)c(Cl)c(=O)n21 (centres unmarked) [Compound 004, 1-benzyl-6-chloro-7-(naphthalen-1-ylmethyl)-5-oxo-8-(3-(trifluoromethyl)phenyl)-1,2,3,5-tetrahydroimidazo[1,2-a]pyridine-3-carboxylic acid] | 31 to 60% | 57% | 11 to 31% | 26% | – |
| CC(C)CN1CC(C(=O)O)n2c1c(-c1cccc(C(F)(F)F)c1)c(Cc1cccc3ccccc13)c(Cl)c2=O (centres unmarked) [Compound 164, 6-chloro-1-isobutyl-7-(naphthalen-1-ylmethyl)-5-oxo-8-(3-(trifluoromethyl)phenyl)-1,2,3,5-tetrahydroimidazo[1,2-a]pyridine-3-carboxylic acid] | 31 to 60% | 52% | 31 to 60% | 42% | – |
| CCc1c(Cc2cccc3ccccc23)c(-c2cccc(C(F)(F)F)c2)c2n(c1=O)C(C(=O)O)CN2Cc1ccc(OC)cc1 (centres unmarked) [Compound 161, 6-ethyl-1-(4-methoxybenzyl)-7-(naphthalen-1-ylmethyl)-5-oxo-8-(3-(trifluoromethyl)phenyl)-1,2,3,5-tetrahydroimidazo[1,2-a]pyridine-3-carboxylic acid] | 31 to 60% | 54% | 11 to 31% | 29% | – |
| O=C(O)C1CN(CC2CCCCC2)c2c(-c3cccc(C(F)(F)F)c3)c(Cc3cccc4ccccc34)c(Cl)c(=O)n21 (centres unmarked) [Compound 180, 6-chloro-1-(cyclohexylmethyl)-7-(naphthalen-1-ylmethyl)-5-oxo-8-(3-(trifluoromethyl)phenyl)-1,2,3,5-tetrahydroimidazo[1,2-a]pyridine-3-carboxylic acid] | > 60% | 65% | 11 to 31% | 21% | – |
| CCCN1CC(C(=O)O)n2c(c(-c3cccc(C(F)(F)F)c3)c(Cc3cccc4ccccc34)c(O)c2=O)S1(=O)=O (centres unmarked) [Compound 141, 7-hydroxy-8-(naphthalen-1-ylmethyl)-6-oxo-2-propyl-9-(3-(trifluoromethyl)phenyl)-3,4-dihydro-2H,6H-pyrido[1,2-e][1,2,5]thiadiazine-4-carboxylic acid 1,1-dioxide] | > 60% | 80% | > 60% | 94% | – |
| O=C(O)[C@H]1CN(Cc2ccccc2)c2c(-c3cccc(C(F)(F)F)c3)c(Cc3cccc4ccccc34)c(Cl)c(=O)n21 (single isomer, unassigned) [Compound 004b] | 31 to 60% | 54% | 31 to 60% | 40% | – |
| CC1(C)Sc2c(-c3cccc(C(F)(F)F)c3)c(Cc3cccc4ccccc34)nc(=O)n2C1C(=O)O (centres unmarked) [Compound 059, 2,2-dimethyl-7-(naphthalen-1-ylmethyl)-5-oxo-8-(3-(trifluoromethyl)phenyl)-2,3-dihydro-5H-thiazolo[3,2-c]pyrimidine-3-carboxylic acid] | – | – | – | – | remaining activity at 25 µM [5]: > 60%; remaining activity at 25 µM [6]: 63%; remaining activity at 100 µM [7]: 11 to 31%; remaining activity at 100 µM [8]: 22% |
